Entries after “also recorded” stand apart in the source; their conditions may differ.
Assays:
[1] = system: Flt-3; test: Flt-3 phosphorylation in MV4-11 tumor lysates (immunoprecipitation, Western blot); assay type: in vivo, human; details: 40 mg/kg VII, about two hours after final dose, vs vehicle
Procedure: Panel A is detection of phosphorylated Flt-3 in MV4-11 tumor lysates from mice approximately two hours after the final dose of VII or vehicle using anti-phosphotyrosine antibody on the left and anti-phospho-Flt-3 specific antibody on the right side of the blot. Additionally, a reprobe of the blot for the total Flt-3 levels are shown in Panel B.
Western blot analysis of phosphorylated Flt-3 was carried out as follows.
3. Weigh and normalize in 250 mg/l ml ice-cold RIPA buffer (Santa Cruz Biotechnology, sc-24948) containing protease inhibitor and phosphotase inhibitor cocktail (Sigma, P5726, 1 ml/100 ml lysis buffer).
Immunoprecipitation. • 1. Take 1 mg tumor lysate and add primary antibody 2 ug (Anti-Flt-3 S18, Santa Cruz, #sc-480) adjust volume to 500 ul with lysis buffer. Incubate with gentle rocking for 1 h at 4° C. • 2. Add protein A/G plus-agarose beads (Santa Cruz, SC-2003) 40 ul. Incubate with gentle rocking for 1 h at RT. • 3. Microcentrifuge for 30 second at 4° C. Wash pellet three times with 500 ul of 1× lysis buffer. Keep on ice during washes. • 4. Resuspend the pellet with 30 ul 2× Tris-Glysine SDS loading buffer+5 ul reducing agent 10× (Invitrogen). • 5. Heat the sample to 95-100° C. for 5 minutes. • 6. Store the sample at −80° C.
Western Blot Procedure. • 1. Load 20 ul of the sample on 8% Tris-Glysine gel. • 2. Run in 1× Tris-glysine SDS running buffer. • 3. […]

[2] = Stability of prodrug in rat plasma; assay type: in vitro ADME
Description: Although phosphate-containing prodrugs suitable for oral administration are of interest, skilled artisans will appreciate that prodrugs including phosphate-containing progroups R^P can be administered via other routes of administration, as phosphatases are distributed throughout the body. […] Thus, the only requirement is that the particular phosphate-containing progroup R^P selected should be removable under the conditions of intended use.
The presence of Phosphatase activity in rat plasma was confirmed using p-nitrophenyl phosphate—a known substrate for phosphatase.

COc1cc(Nc2ncc(F)c(Nc3ccc4c(n3)N(COP(=O)(O)O)C(=O)C(C)(C)O4)n2)cc(OC)c1OC [Compound 4, N4-(2,2-dimethyl-4-[(dihydrogenphosphonoxy)methyl]-3-oxo-5-pyrido[1,4]oxazin-6-yl)-5-fluoro-N2-(3,4,5-trimethoxyphenyl)-2,4-pyrimidinediamine]
Constitutive phosphorylation of Flt-3 in tumors [1]: reduced | stability in rat plasma (hydrolysis to Compound III) [2]: metabolize to the active drug Compound III; also recorded: unstable

From patent publication US8481521B2, “Methods of treating cell proliferative disorders” (Rigel Pharmaceuticals, Inc., priority 2005, dated 2013)
